Laboratory results from patent US20050004102A1, “Monohydroxycarbamazepine for use in the preparation of a medicament for the treatment of affective and attention disorder and neuropathic pain” (priority 2001, published 2005).

Columns and labels:
GABA turnover = GABA turnover determination after maximal inhibition of GABA-T; assay type: in vivo; settings: doses of 30 to about 300 mg/kg p.o.
From the text: The activity of the compound of formula I on GABA turnover is evidenced in the following experiment: The determination of GABA turnover Is based on the linear increase in GABA level observed after the maximal inhibition of gamma-aminobutyric acid transaminase (GABA-T). The values obtained with this approach for the rate of GABA synthesis are independent of the inhibitors used and within the catalytic capacity of the enzymes involved in the GABA shunt.

[1] = tested on: social withdrawal of intruder mice; experiment: social withdrawal of intruder mice; assay type: in vivo; settings: dose range of 1 to about 100 mg/kg p.o.
From the text: The activity of the compound of formula I in the treatment of affective and attention disorders treatment is also evidenced, for example, in tests suitable for detecting drugs having potential behavioural desinhibitory and/or sociotropic effects which are thought to be relevant for recovery from social withdrawal, a cardinal feature of depression and related psychiatric conditions. For instance, drug effects on social withdrawal of intruder mice can be evaluated by using the basic method as described in Triangle, 1982, 21:95-105 and J. Clin. Psychiatry, 1994, 55:9 (suppl. B) 4-7.

[2] = tested on: neuropathic mechanical hyperalgesia; experiment: model of neuropathic pain in the guinea pig (partial sciatic nerve ligation, mechanical hyperalgesia); assay type: in vivo, Dunkin Hartley guinea pigs; settings: paw withdrawal threshold, up to 6 hours
From the text: The direct activity of the compound of formula I in the treatment of neuropathic pain is evidenced, for example, in the following model of neuropathic pain in the guinea pig: Dunkin Hartley guinea pigs are anaesthetised with enflurane (in N2O:O2 for guinea pigs) and the left sciatic nerve is exposed and partially ligated with thread. This procedure produces a mechanical hyperalgesia, which develops within 2-3 days and is maintained for at least 4 weeks. Paw withdrawal thresholds to a pressure stimulus are measured using an analgesymeter. Mechanical thresholds are taken on both the ipsilateral (ligated) and contralateral (unligated) paw prior to and then up to 6 hours following drug or vehicule administration. Reversal of hyperalgesia at each time point is calculated. Groups of 6 animals are used. Statistical analysis is carried out on withdrawal threshold readings using ANOVA followed by Tukey's HSD test.

[3] = tested on: chronic pain in patients with diabetic neuropathy; experiment: clinical trials in chronic pain in patients with diabetic neuropathy; assay type: in vivo; settings: Maintenance and Follow-up Periods
From the text: The activity of the compound of formula I in the treatment of neuropathic pain and related disorders can be confirmed in clinical trials evaluating the efficacy of a compound in treating chronic pain in patients with diabetic neuropathy.

Q: For `NC(=O)N1c2ccccc2CC(O)c2ccccc21` (centres unmarked) [compound of formula I, 10-hydroxy-10,11-dihydro-carbamazepine], which GABA turnover rate (GABA turnover) is on record?
A: dose-dependently inhibits

Q: What about the “social investigation in the treated mouse” value [1] of the same molecule?
A: increases social investigation

Q: What about the “reversal of neuropathic mechanical hyperalgesia” value ([2]; 3 to about 100 mg/kg s.c.) of the same molecule?
A: significantly and dose-dependently reverses

Q: What about the “reversal of neuropathic mechanical hyperalgesia” value ([2]; 10 to about 100 mg/kg p.o.) of the same molecule?
A: significantly and dose-dependently reverses

Q: And the “pain severity ratings relative to placebo” value [3]?
A: decrease pain severity ratings
